# From publication PMC5578999, “Novel quinolone chalcones targeting colchicine-binding pocket kill multidrug-resistant cancer cells by inhibiting tubulin activity and MRP1 function” (Scientific Reports, 2017)
# Columns and labels:
# Experiment in all cases: NCI-60 SRB screen
# Format in all cases: cell-based
# 786-0 = tested on: 786-0
# A549/ATCC = tested on: A549/ATCC
# HCC-2998 = tested on: HCC-2998
# LOX IMVI = tested on: LOX IMVI
# MALME-3M = tested on: MALME-3M
# NCI-H23 = tested on: NCI-H23
# SK-MEL-28 = tested on: SK-MEL-28
# SK-MEL-5 = tested on: SK-MEL-5
# SN12C = tested on: SN12C
# T-47D = tested on: T-47D
# TK-10 = tested on: TK-10
# UO-31 = tested on: UO-31
# [1] = Homo sapiens, read-out: LC50 (the source's name)
compound,measurement,setting,value
"COc1ccc2[nH]c(=O)c(/C=C/C(=O)c3ccccc3OC)cc2c1 [CTR-20, (E)-6-Methoxy-3-(3-(2-methoxyphenyl)-3-oxoprop-1-enyl) quinolin-2(1H)-one]",Log10GI50,786-0,-6.42 Molar
same,Log10LC50,786-0,-5.29 Molar
same,Log10TGI,786-0,-5.81 Molar
same,TGI,786-0,1.56E-6 Molar
same,Growth Percent,786-0; 1.00E-5 Molar,8.21%
same,GI50,786-0; Homo sapiens,378 nM
same,CC50,786-0; [1],5.11 µM
same,Percent Growth,786-0; Log10 Concentration -4.0,-97%
same,Percent Growth,786-0; Log10 Concentration -5.0,-78%
same,Percent Growth,786-0; Log10 Concentration -6.0,19%
same,Percent Growth,786-0; Log10 Concentration -7.0,93%
same,Percent Growth,786-0; Log10 Concentration -8.0,91%
same,Log10GI50,A549/ATCC,-5.68 Molar
same,Log10LC50,A549/ATCC,-4.42 Molar
same,Log10TGI,A549/ATCC,-4.98 Molar
same,TGI,A549/ATCC,1.04E-5 Molar
same,Growth Percent,A549/ATCC; 1.00E-5 Molar,10.42%
same,GI50,A549/ATCC; Homo sapiens,2090 nM
same,CC50,A549/ATCC; [1],37.9 µM
same,Percent Growth,A549/ATCC; Log10 Concentration -4.0,-88%
same,Percent Growth,A549/ATCC; Log10 Concentration -5.0,2%
same,Percent Growth,A549/ATCC; Log10 Concentration -6.0,73%
same,Percent Growth,A549/ATCC; Log10 Concentration -7.0,114%
same,Percent Growth,A549/ATCC; Log10 Concentration -8.0,106%
same,Log10GI50,HCC-2998,-5.80 Molar
same,Log10LC50,HCC-2998,-5.23 Molar
same,Log10TGI,HCC-2998,-5.52 Molar
same,TGI,HCC-2998,3.03E-6 Molar
same,Growth Percent,HCC-2998; 1.00E-5 Molar,23.11%
same,GI50,HCC-2998; Homo sapiens,1570 nM
same,CC50,HCC-2998; [1],5.85 µM
same,Percent Growth,HCC-2998; Log10 Concentration -4.0,-91%
same,Percent Growth,HCC-2998; Log10 Concentration -5.0,-91%
same,Percent Growth,HCC-2998; Log10 Concentration -6.0,84%
same,Percent Growth,HCC-2998; Log10 Concentration -7.0,97%
same,Percent Growth,HCC-2998; Log10 Concentration -8.0,99%
same,Log10GI50,LOX IMVI,-6.42 Molar
same,Log10LC50,LOX IMVI,-5.33 Molar
same,Log10TGI,LOX IMVI,-5.79 Molar
same,TGI,LOX IMVI,1.61E-6 Molar
same,Growth Percent,LOX IMVI; 1.00E-5 Molar,10.23%
same,GI50,LOX IMVI; Homo sapiens,379 nM
same,LC50,LOX IMVI; Homo sapiens,4.71 µM
same,Percent Growth,LOX IMVI; Log10 Concentration -4.0,-95%
same,Percent Growth,LOX IMVI; Log10 Concentration -5.0,-85%
same,Percent Growth,LOX IMVI; Log10 Concentration -6.0,22%
same,Percent Growth,LOX IMVI; Log10 Concentration -7.0,88%
same,Percent Growth,LOX IMVI; Log10 Concentration -8.0,96%
same,GI50,"MALME-3M; Homo sapiens, Malme-3M",766 nM
same,CC50,"MALME-3M; Homo sapiens, Malme-3M, read-out: LC50 (the source's name)",30.3 µM
same,Log10GI50,MALME-3M; MALME-3M,-6.12 Molar
same,Log10LC50,MALME-3M; MALME-3M,-4.52 Molar
same,Log10TGI,MALME-3M; MALME-3M,-5.09 Molar
same,TGI,MALME-3M; MALME-3M,8.09E-6 Molar
same,Growth Percent,"MALME-3M; MALME-3M, 1.00E-5 Molar",38.55%
same,Percent Growth,"MALME-3M; MALME-3M, Log10 Concentration -4.0",-99%
same,Percent Growth,"MALME-3M; MALME-3M, Log10 Concentration -5.0",-5%
same,Percent Growth,"MALME-3M; MALME-3M, Log10 Concentration -6.0",46%
same,Percent Growth,"MALME-3M; MALME-3M, Log10 Concentration -7.0",81%
same,Percent Growth,"MALME-3M; MALME-3M, Log10 Concentration -8.0",92%
same,Log10GI50,NCI-H23,-5.88 Molar
same,Log10LC50,NCI-H23,-4.66 Molar
same,Log10TGI,NCI-H23,-5.41 Molar
same,TGI,NCI-H23,3.93E-6 Molar
same,Growth Percent,NCI-H23; 1.00E-5 Molar,21.29%
same,GI50,NCI-H23; Homo sapiens,1330 nM
same,CC50,NCI-H23; [1],21.6 µM
same,Percent Growth,NCI-H23; Log10 Concentration -4.0,-64%
same,Percent Growth,NCI-H23; Log10 Concentration -5.0,-43%
same,Percent Growth,NCI-H23; Log10 Concentration -6.0,63%
same,Percent Growth,NCI-H23; Log10 Concentration -7.0,87%
same,Percent Growth,NCI-H23; Log10 Concentration -8.0,88%
same,Log10GI50,SK-MEL-28,-5.82 Molar
same,Log10LC50,SK-MEL-28,-4.54 Molar
same,Log10TGI,SK-MEL-28,-5.14 Molar
same,TGI,SK-MEL-28,7.32E-6 Molar
same,Growth Percent,SK-MEL-28; 1.00E-5 Molar,50.45%
same,GI50,SK-MEL-28; Homo sapiens,1520 nM
same,CC50,SK-MEL-28; [1],28.5 µM
same,Percent Growth,SK-MEL-28; Log10 Concentration -4.0,-98%
same,Percent Growth,SK-MEL-28; Log10 Concentration -5.0,-10%
same,Percent Growth,SK-MEL-28; Log10 Concentration -6.0,63%
same,Percent Growth,SK-MEL-28; Log10 Concentration -7.0,95%
same,Percent Growth,SK-MEL-28; Log10 Concentration -8.0,96%
same,Log10GI50,SK-MEL-5,-6.14 Molar
same,Log10LC50,SK-MEL-5,-5.31 Molar
same,Log10TGI,SK-MEL-5,-5.68 Molar
same,TGI,SK-MEL-5,2.08E-6 Molar
same,Growth Percent,SK-MEL-5; 1.00E-5 Molar,25.21%
same,GI50,SK-MEL-5; Homo sapiens,728 nM
same,CC50,SK-MEL-5; [1],4.93 µM
same,Percent Growth,SK-MEL-5; Log10 Concentration -4.0,-98%
same,Percent Growth,SK-MEL-5; Log10 Concentration -5.0,-91%
same,Percent Growth,SK-MEL-5; Log10 Concentration -6.0,43%
same,Percent Growth,SK-MEL-5; Log10 Concentration -7.0,96%
same,Percent Growth,SK-MEL-5; Log10 Concentration -8.0,101%
same,Log10GI50,SN12C,-6.27 Molar
same,Log10LC50,SN12C,-4.44 Molar
same,Log10TGI,SN12C,-4.99 Molar
same,TGI,SN12C,1.03E-5 Molar
same,Growth Percent,SN12C; 1.00E-5 Molar,8.57%
same,GI50,SN12C; Homo sapiens,537 nM
same,CC50,SN12C; [1],36.7 µM
same,Percent Growth,SN12C; Log10 Concentration -4.0,-89%
same,Percent Growth,SN12C; Log10 Concentration -5.0,1%
same,Percent Growth,SN12C; Log10 Concentration -6.0,32%
same,Percent Growth,SN12C; Log10 Concentration -7.0,100%
same,Percent Growth,SN12C; Log10 Concentration -8.0,102%
same,Log10GI50,T-47D,-5.98 Molar
same,Log10LC50,T-47D,-4.32 Molar
same,Log10TGI,T-47D,-4.93 Molar
same,TGI,T-47D,1.18E-5 Molar
same,Growth Percent,T-47D; 1.00E-5 Molar,-2.02%
same,GI50,"T-47D; Homo sapiens, T47D",1060 nM
same,CC50,"T-47D; Homo sapiens, T47D, read-out: LC50 (the source's name)",47.9 µM
same,Percent Growth,T-47D; Log10 Concentration -4.0,-76%
same,Percent Growth,T-47D; Log10 Concentration -5.0,6%
same,Percent Growth,T-47D; Log10 Concentration -6.0,51%
same,Percent Growth,T-47D; Log10 Concentration -7.0,90%
same,Percent Growth,T-47D; Log10 Concentration -8.0,84%
same,Log10GI50,TK-10,-5.64 Molar
same,Log10LC50,TK-10,-4.44 Molar
same,Log10TGI,TK-10,-4.88 Molar
same,TGI,TK-10,1.31E-5 Molar
same,Growth Percent,TK-10; 1.00E-5 Molar,42.01%
same,GI50,TK-10; Homo sapiens,2310 nM
same,CC50,TK-10; [1],36.4 µM
same,Percent Growth,TK-10; Log10 Concentration -4.0,-99%
same,Percent Growth,TK-10; Log10 Concentration -5.0,13%
same,Percent Growth,TK-10; Log10 Concentration -6.0,71%
same,Percent Growth,TK-10; Log10 Concentration -7.0,93%
same,Percent Growth,TK-10; Log10 Concentration -8.0,91%
same,Log10GI50,UO-31,-6.02 Molar
same,Log10LC50,UO-31,-5.28 Molar
same,Log10TGI,UO-31,-5.64 Molar
same,TGI,UO-31,2.28E-6 Molar
same,Growth Percent,UO-31; 1.00E-5 Molar,23.62%
same,GI50,UO-31; Homo sapiens,958 nM
same,CC50,UO-31; [1],5.27 µM
same,Percent Growth,UO-31; Log10 Concentration -4.0,-100%
same,Percent Growth,UO-31; Log10 Concentration -5.0,-88%
same,Percent Growth,UO-31; Log10 Concentration -6.0,49%
same,Percent Growth,UO-31; Log10 Concentration -7.0,81%
same,Percent Growth,UO-31; Log10 Concentration -8.0,87%
